According to PubChem BioAssay AID330 (DTP/NCI, 2004):
Where “and” joins values, the source holds several entries; their conditions need not be identical. Identical values can stand only once. Toxic doses and inconclusive results are not listed. Rule for the calls: active = survival T/C of 150% or more; inactive = T/C below 125% in these data. Peptide text beside a SMILES is read from it. * marks the point of attachment. Boc = CC(C)(C)OC(=O)*

System: P388 leukemia ip, CD2F1 mice, survival T/C
Assay: NCI In Vivo Anticancer Drug Screen. Data for tumor model P388 Leukemia (intraperitoneal) in CD2F1 (CDF1) mice
Conditions: endpoint: median survival time, higher = longer survival
Method in brief: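 Mice carrying the transplanted tumor received test compound or vehicle. Survival was recorded in each group, and the value is the treated-group measurement divided by that of the vehicle-treated control group.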

[1] = dose: 100.0 mg/kg/injection, schedule: Q04DX003 (ip), vehicle: saline
[2] = dose: 50.0 mg/kg/injection, schedule: Q01DX005 (ip), vehicle: saline with Tween-80
[3] = dose: 100.0 mg/kg/injection, schedule: Q01DX005 (ip), vehicle: saline with Tween-80
[4] = dose: 200.0 mg/kg/injection, schedule: Q01DX005 (ip), vehicle: saline with Tween-80
[5] = dose: 60.0 mg/kg/injection, schedule: Q01DX005 (ip), vehicle: saline with Tween-80
[6] = dose: 120.0 mg/kg/injection, schedule: Q01DX005 (ip), vehicle: saline with Tween-80
[7] = dose: 240.0 mg/kg/injection, schedule: Q01DX005 (ip), vehicle: saline with Tween-80
[8] = dose: 50.0 mg/kg/injection, schedule: Q01DX005 (ip), vehicle: Klucel (hydroxypropylcellulose) (HPC)
[9] = dose: 100.0 mg/kg/injection, schedule: Q01DX005 (ip), vehicle: Klucel (hydroxypropylcellulose) (HPC)
[10] = dose: 200.0 mg/kg/injection, schedule: Q01DX005 (ip), vehicle: Klucel (hydroxypropylcellulose) (HPC)
[11] = dose: 12.5 mg/kg/injection, schedule: Q01DX005 (ip), vehicle: Klucel (hydroxypropylcellulose) (HPC)
[12] = dose: 25.0 mg/kg/injection, schedule: Q01DX005 (ip), vehicle: Klucel (hydroxypropylcellulose) (HPC)

Measured: T/C

CCOC(=O)C1(c2ccccc2)SC(C(=O)OCC)(c2ccccc2)S1 (stereo not drawn)
inactive: [1] 112 % of control | dose: 200.0 mg/kg/injection, schedule: Q04DX003 (ip), vehicle: saline 107 % of control | dose: 400.0 mg/kg/injection, schedule: Q04DX003 (ip), vehicle: saline 103 % of control

CCc1nc(N)nc(N)c1-c1ccc(NC(C)c2ccccc2)c([N+](=O)[O-])c1 (stereo not drawn)
inactive: dose: 3.75 mg/kg/injection, schedule: Q01DX005 (ip), vehicle: Klucel (hydroxypropylcellulose) (HPC) 101 % of control | dose: 7.5 mg/kg/injection, schedule: Q01DX005 (ip), vehicle: Klucel (hydroxypropylcellulose) (HPC) 101 % of control and 107 % of control | dose: 15.0 mg/kg/injection, schedule: Q01DX005 (ip), vehicle: Klucel (hydroxypropylcellulose) (HPC) 112 % of control and 113 % of control

CCc1ccc(NC(=O)/C=C\C(=O)O)cc1
inactive: [2] 98 % of control | [3] 95 % of control | [4] 90 % of control

COC(=O)c1ccc(NCC(=N)N)cc1
inactive: dose: 50.0 mg/kg/injection, schedule: Q01DX001 (ip), vehicle: saline 100 % of control | dose: 100.0 mg/kg/injection, schedule: Q01DX001 (ip), vehicle: saline 100 % of control | dose: 200.0 mg/kg/injection, schedule: Q01DX001 (ip), vehicle: saline 104 % of control

O=C1C=CC2(C=C1)N=C(c1ccccc1)C=C2c1ccccc1
inactive: [2] 101 % of control | [3] 97 % of control | [4] 93 % of control

COc1ccc2c(c1)[C@]13CCN(C)[C@H](C2)[C@@H]1CCC1(C3)OCCO1
inactive: dose: 100.0 mg/kg/injection, schedule: Q01DX001 (ip), vehicle: saline with Tween-80 104 % of control | dose: 200.0 mg/kg/injection, schedule: Q01DX001 (ip), vehicle: saline with Tween-80 106 % of control

CCCCNc1ccc(Nc2ccccc2)cc1
inactive: dose: 6.25 mg/kg/injection, schedule: Q01DX009 (ip), vehicle: saline with Tween-80 95 % of control | dose: 12.5 mg/kg/injection, schedule: Q01DX009 (ip), vehicle: saline with Tween-80 108 % of control | dose: 25.0 mg/kg/injection, schedule: Q01DX009 (ip), vehicle: saline with Tween-80 115 % of control | dose: 50.0 mg/kg/injection, schedule: Q01DX009 (ip), vehicle: saline with Tween-80 121 % of control

CC(C)c1ccc(C2NC(=S)NC(=O)C2C#N)cc1 (stereo not drawn)
inactive: dose: 50.0 mg/kg/injection, schedule: Q01DX009 (ip), vehicle: saline 101 % of control | dose: 100.0 mg/kg/injection, schedule: Q01DX009 (ip), vehicle: saline 100 % of control | dose: 200.0 mg/kg/injection, schedule: Q01DX009 (ip), vehicle: saline 98 % of control

CC(NC(=S)Nc1ccccc1)c1ccccc1 (stereo not drawn)
inactive: dose: 25.0 mg/kg/injection, schedule: Q04DX002 (ip), vehicle: Klucel (hydroxypropylcellulose) (HPC) 100 % of control | dose: 50.0 mg/kg/injection, schedule: Q04DX002 (ip), vehicle: Klucel (hydroxypropylcellulose) (HPC) 100 % of control | dose: 100.0 mg/kg/injection, schedule: Q04DX002 (ip), vehicle: Klucel (hydroxypropylcellulose) (HPC) 96 % of control

NC(=O)N/N=C1/CC(=O)N(c2ccccc2)C1c1ccccc1 (stereo not drawn)
inactive: [5] 93 % of control | [6] 91 % of control | [7] 92 % of control

COc1cc(CNNc2ccc(NC(C)=O)cc2N)ccc1OC(C)=O
inactive: dose: 25.0 mg/kg/injection, schedule: Q04DX003 (ip), vehicle: saline with Tween-80 94 % of control | dose: 50.0 mg/kg/injection, schedule: Q04DX003 (ip), vehicle: saline with Tween-80 91 % of control | dose: 100.0 mg/kg/injection, schedule: Q04DX003 (ip), vehicle: saline with Tween-80 86 % of control

COC(=O)C(CO)NC(=O)C(Cc1ccccc1)NC(=O)OC(C)(C)C (stereo not drawn) (Boc-Phe-Ser-OMe; configuration not given here)
inactive: [8] 99 % of control | [9] 105 % of control | [10] 100 % of control

NS(=O)(=O)C1CCCCC1
inactive: dose: 3.13 mg/kg/injection, schedule: Q01DX009 (ip), vehicle: saline 106 % of control | dose: 6.25 mg/kg/injection, schedule: Q01DX009 (ip), vehicle: saline 99 % of control | dose: 12.5 mg/kg/injection, schedule: Q01DX009 (ip), vehicle: saline 106 % of control | dose: 25.0 mg/kg/injection, schedule: Q01DX009 (ip), vehicle: saline 106 % of control

O=C(O)CC1OCC=C2CN3CCC45c6ccccc6NC4C1C2CC35 (stereo not drawn)
inactive: dose: 0.93 mg/kg/injection, schedule: Q01DX005 (ip), vehicle: Klucel (hydroxypropylcellulose) (HPC) 100 % of control | dose: 1.87 mg/kg/injection, schedule: Q01DX005 (ip), vehicle: Klucel (hydroxypropylcellulose) (HPC) 98 % of control | dose: 7.5 mg/kg/injection, schedule: Q01DX005 (ip), vehicle: saline with Tween-80 100 % of control | dose: 15.0 mg/kg/injection, schedule: Q01DX005 (ip), vehicle: saline with Tween-80 100 % of control | dose: 30.0 mg/kg/injection, schedule: Q01DX005 (ip), vehicle: saline with Tween-80 100 % of control

CC1NCCc2c1[nH]c1ccccc21 (stereo not drawn)
inactive: [11] 101 % of control | [12] 97 % of control | [8] 101 % of control and 97 % of control

C/C=C/C1CC2CC(CC(O)CC)CN2O1 (stereo not drawn)
inactive: dose: 25.0 mg/kg/injection, schedule: Q01DX005 (ip), vehicle: saline with Tween-80 108 % of control | [2] 100 % of control | [3] 110 % of control

Cc1csc2n/c(=N/[N+](=O)[O-])sn12
inactive: [5] 92 % of control | [6] 103 % of control | [7] 120 % of control

CCCCCCCN(CCCCCCC)C(=N)c1ccc(OC)c2ccccc12
inactive: dose: 6.25 mg/kg/injection, schedule: Q01DX005 (ip), vehicle: Klucel (hydroxypropylcellulose) (HPC) 101 % of control | [11] 101 % of control | [12] 89 % of control

CCCCCNc1ncnc2c1ncn2C1OC(CO)C(O)C1O (stereo not drawn)
inactive: dose: 12.5 mg/kg/injection, schedule: Q04DX003 (ip), vehicle: saline 97 % of control | dose: 25.0 mg/kg/injection, schedule: Q04DX003 (ip), vehicle: saline 108 % of control | dose: 50.0 mg/kg/injection, schedule: Q04DX003 (ip), vehicle: saline 102 % of control | [1] 104 % of control

CC(=O)Oc1cccc2c1ccc1nonc12
inactive: [2] 88 % of control | [3] 88 % of control | [4] 88 % of control

CN1CCN(Cc2oc(CO)cc(=O)c2O)CC1
inactive: dose: 60.0 mg/kg/injection, schedule: Q01DX005 (ip), vehicle: saline 103 % of control | dose: 120.0 mg/kg/injection, schedule: Q01DX005 (ip), vehicle: saline 92 % of control | dose: 240.0 mg/kg/injection, schedule: Q01DX005 (ip), vehicle: saline 104 % of control

O=C(N/N=C/c1ccccc1O)C(=O)Nc1ccc(F)cc1
inactive: [8] 94 % of control | [9] 92 % of control | [10] 87 % of control

CC(=O)Nc1ccc(C(F)(F)F)cc1
inactive: dose: 25.0 mg/kg/injection, schedule: Q01DX009 (ip), vehicle: suspension in saline 94 % of control | dose: 50.0 mg/kg/injection, schedule: Q01DX009 (ip), vehicle: suspension in saline 94 % of control | dose: 100.0 mg/kg/injection, schedule: Q01DX009 (ip), vehicle: suspension in saline 86 % of control

OCC1(C(O)(C2CC2)C2(CO)CC2)CC1
inactive: [2] 105 % of control | [3] 105 % of control | [4] 100 % of control

CNC(=O)c1nn(-c2ccccc2)c2oc(=O)cc(C)c12
inactive: [8] 95 % of control | [9] 87 % of control | [10] 87 % of control

O=C1CC[C@@H]2CCCC[C@@H]2C1
inactive: dose: 12.5 mg/kg/injection, schedule: Q01DX009 (ip), vehicle: saline sonified 104 % of control | dose: 25.0 mg/kg/injection, schedule: Q01DX009 (ip), vehicle: saline sonified 118 % of control | dose: 50.0 mg/kg/injection, schedule: Q01DX009 (ip), vehicle: saline sonified 100 % of control

Cc1cc(C)n2c(-c3ccccc3)c(C)c(C#N)c2n1
inactive: [5] 106 % of control | [6] 100 % of control | [7] 91 % of control

COc1cc(C(c2cc3c(cc2OC(C)=O)OCO3)C(C)C(C)=O)cc(OC)c1OC (stereo not drawn)
inactive: [5] 102 % of control | [6] 108 % of control | [7] 111 % of control
